Like-named read-outs stand apart in the source and are kept apart here.
Experiments:
KCC2-S940A = target: T1, KCC2-S940A (Homo sapiens, UniProt Q9H2X9, S963A); experiment: Tl+ flux assay, KCC2-S940A construct; type: cell-based; details: HEK-293
T1 construct: expressed in transfected cells; host or cells: HEK-293
T1 sequence (Q9H2X9 1-1116 isoform Q9H2X9-2 S940A): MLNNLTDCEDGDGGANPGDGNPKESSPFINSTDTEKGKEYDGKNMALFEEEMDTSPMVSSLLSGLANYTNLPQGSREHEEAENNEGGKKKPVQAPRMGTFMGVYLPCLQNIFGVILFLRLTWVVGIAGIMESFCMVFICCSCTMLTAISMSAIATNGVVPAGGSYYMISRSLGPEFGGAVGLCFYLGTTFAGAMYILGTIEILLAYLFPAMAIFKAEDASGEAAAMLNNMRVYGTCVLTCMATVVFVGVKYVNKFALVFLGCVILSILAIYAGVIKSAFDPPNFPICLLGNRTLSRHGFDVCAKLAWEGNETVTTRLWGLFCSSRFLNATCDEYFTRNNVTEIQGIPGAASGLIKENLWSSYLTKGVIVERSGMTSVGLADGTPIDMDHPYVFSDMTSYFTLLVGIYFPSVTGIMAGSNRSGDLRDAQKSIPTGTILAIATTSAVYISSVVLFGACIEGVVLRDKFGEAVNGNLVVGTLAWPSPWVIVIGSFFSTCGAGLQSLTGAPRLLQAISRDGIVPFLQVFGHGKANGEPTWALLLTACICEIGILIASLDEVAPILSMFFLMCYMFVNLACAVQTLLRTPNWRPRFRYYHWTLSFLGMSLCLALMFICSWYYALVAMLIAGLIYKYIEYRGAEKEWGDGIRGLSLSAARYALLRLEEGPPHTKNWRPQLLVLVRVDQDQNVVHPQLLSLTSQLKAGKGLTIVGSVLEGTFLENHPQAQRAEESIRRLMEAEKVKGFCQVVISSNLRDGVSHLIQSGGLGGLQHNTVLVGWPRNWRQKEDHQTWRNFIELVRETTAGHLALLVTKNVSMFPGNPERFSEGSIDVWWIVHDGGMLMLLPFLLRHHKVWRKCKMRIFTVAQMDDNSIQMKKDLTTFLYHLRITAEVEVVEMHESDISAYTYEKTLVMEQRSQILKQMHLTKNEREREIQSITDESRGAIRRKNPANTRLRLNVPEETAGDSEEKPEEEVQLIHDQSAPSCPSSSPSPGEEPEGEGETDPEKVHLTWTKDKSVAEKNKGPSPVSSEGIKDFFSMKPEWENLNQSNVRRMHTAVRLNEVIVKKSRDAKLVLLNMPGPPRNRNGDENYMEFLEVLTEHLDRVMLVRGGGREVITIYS
Method: FLIPR TI Flux assay. HEK-293 cells were washed with HBSS, and then incubated with loading buffer containing TI sensitive fluorescent dye (https://www.moleculardevices.com), 20 μM bumetanide 20 μM ouabain and 2.5 mM probenecid for 1 h at room temperature (RT) under control conditions or with drugs in the dark using a FlexStation 3 microplate reader (Molecular Devices) and imaged […] for 30 min. Stimulus buffer was added containing 5 mM K^+/0.5 mM Tl^+ and cells were imaged every 1.5 over a 190 second time course The initial rate Tl^+ uptake (Relative Fluorescence Units (RFU) per second) was determined following addition of the stimulus buffer as outlined previously (Conway et at, 2017, supra) (Lee et at, 2022, supra).
Several studies have shown that the activity and plasma membrane accumulation of KCC2 is potentiated via phosphorylation of S940, a process mediated by the activity of protein kinase C and protein phosphatase 1 (Lee et al., 2011, supra; Lee et al., J Biol Chem 282, 29777-29784 (2007); Moore et al., Proc. Natl. Acad. Sci. U.S.A. 115, 10166-10171 (2018); Moore et al., Trends Neurosci. 40, 555-571 (2017); Silayeva et al., Proc. Natl. Acad. Sci. U.S.A. 112, 3523-3528 (2015)). […] Compared to KCC2, effects on KCC3, KCC4, and NKCC1 were only seen at concentrations more than 35-fold that of KCC2 (>100 μM) (FIG. 1G).

[1] = test system: panel of 144 protein kinases; experiment: SelectScreen panel of 144 protein kinases; type: biochemical; details: includes PKC isoforms, OSR1, SPAK, WNK
Method: Aliquots of HEK-293 cells expressing KCC2 were exposed to 30 μM SSA, heated from 37-55° C. The remaining level of soluble native KCC2 at each temperature was measured by immunoblotting and normalized to the level seen at 37° C. which was given a value of 1. […] This panel included protein kinase C isoforms, OSR1, SPAK (STK39) and with-no-lysine kinases (WNK), all of which phosphorylate KCC2 on multiple residues to indirectly modify its activity (Kahle et al., 2013, supra; Smalley et al., 2020, supra).

hippocampal neurons = experiment: Whole cell patch clamp with imposed Cl− load, hippocampal neurons; type: cell-based, Sprague Dawley; details: 1 h incubation, 32 mM Cl− load; controls −47.4±2.3
Method: Neuronal Cultures. Hippocampal neurons were prepared from Sprague Dawley E18 embryos and plated at 450,000 per dish and maintained at 37° C. in a humidified 5% CO2 incubator for 10-25 days before experimentation (Lee et al., Nat. Neurosci. 14, 736-743 (2011)).
Neuronal Patch clamp assays. Neuronal cell culture recordings were performed in bath saline at 34° C. For gramicidin perforated-patch experiments, pipettes contained (in mM): 140 KCl and 10 HEPES, pH 7.4 KOH. For whole-cell experiments, pipettes contained (in mM): 115 K-meth-SO^4, 30 KCl, 2 Mg-ATP, 4 Na-ATP, 0.4 Na-GTP, and 10 HEPES, pH 7.4 KOH. Bath saline contained the following (in mM): 140 NaCl, 2.5 KCl, 2.5 CaCl2, 2.5 MgCl2, 10 HEPES, and 11 glucose, pH 7.4 NaOH (Kontou et at, 2021, supra). All compound solutions were applied to cells using a three-barreled 700 μm pipe positioned just above the cell (Warner Instruments). […] All voltages from whole-cell experiments were corrected offline using a calculated liquid junction potential value (13.6 mV) in Clampex (Molecular Devices). For gramicidin perforated-patch experiments, intracellular Cl^− values were back-calculated using measured EGABA values and the Nernst equation: […]
5 min after break-in, an initial EGABA value was determined and the effects of a subsequent 5 min incubation with VU0463271 was assessed.

[2] = PK studies, brain and plasma levels by LC-MS/MS; type: in vivo, mice; details: for concentration at 30 min: 25 mg/kg IV bolus, within 30 minutes
Method: PK studies. […] Plasma and brain samples were rapidly frozen on dry ice.
Drug accumulation in the brain was examined following SC injection (FIG. 4C; 50 mg/kg).

## C[C@@H]1CN(c2nc3c(c(Nc4ccc(C5CCCCC5)cc4)n2)COC3)CCO1 [Compound A, (R)—N-(4-cyclohexylphenyl)-2-(2-methylmorpholino)-5,7-dihydrofuro[3,4-d]pyrimidin-4-amine]
KCC2-S940A
  activity of KCC2-S940A construct: increased the activity
[1]
  activity of panel of 144 protein kinases: did not modify the activity of this kinase panel
Hippocampal neurons
  basal EGABA: −59.3±2.1 mV
[2]; 50 mg/kg SC
  time of maximal concentration in brain: 4 h
[2]; 50 mg/kg SC, 8h
  brain level 8h after SC injection: a level that was maintained 8h later
[2]; 50 mg/kg SC, at 4 hr
  maximal concentration in brain: > 600 nM
[2]; mouse, brain, intraperitoneal, 50 mg/kg IP, 2 hr
  concentration at 2 hr: 2.67 ± 0.21 µM
[2]; mouse, brain, intraperitoneal, 50 mg/kg IP, 4 hr
  concentration at 4 hr: 4.1 ± 0.13 µM
[2]; mouse, brain, read-out: concentration in brain
  concentration at 30 min: 7.6 ± 4.4 µM
[2]; mouse, plasma, read-out: concentration in plasma
  concentration at 30 min: 41.5 ± 11.5 µM

From US20250281497A1, “FUSED AMINO PYRIMIDINE COMPOUNDS FOR TREATMENT OF SEIZURE DISORDERS” (Ovid Therapeutics Inc., priority 2024, published 2025)
